Like-named read-outs stand apart in the source and are kept apart here.
Assays:
[1] = biological target: T1, Wee1A kinase (CDK1 Tyr15 phosphorylation in ACHN renal cell carcinoma cells) (Homo sapiens, UniProt P30291); assay: High-content imaging of pCdk1 Y15, Wee1A kinase target engagement in ACHN cells; assay type: cell-based
T1 construct: pCDK1 Tyr15 immunofluorescence read-out
Protocol: Each of an ACHN renal cell carcinoma cell line (ATCC) and a DAOY medulloblastoma cell line, and an A427 lung cancer line were cultured in Minimum Essential Medium Eagle supplemented with 10% fetal calf serum (Sigma), 1% Penicillin-Streptomycin and 10 mM HEPES buffer (HyClone). Cell cultures were kept in a humidified incubator at 37 °C and 5% CO2. Cells were routinely tested for Mycoplasma contamination.
For target engagement assessment of Wee1A kinase inhibition, high-content imaging of ACHN renal cell carcinoma cells was used for quantification of CDK1 phosphorylated on tyrosine 15 by immunofluorescence (“IF”). 20,000 cells per well were seeded in tissue culture treated 96 well plates and treated with compounds at concentrations ranging from 7 to 5,000 nM or from 0.3 to 200 nM for 4h. Cells were fixated for 15 minutes in 4% paraformaldehyde solution, washed in PBS and permeabilized using 0.2% Triton X-100. Blocking was performed for 1 h at RT using Blocker FL Fluorescent Blocking Buffer (Thermo Scientific), thereafter cells were incubated with primary antibody (rabbit anti-pCDK1 Y^15, #4539, Cell Signaling Technology) at 4 °C ON. Alexa Fluor Plus 647 labelled goat anti-rabbit (A32733, Thermo Scientific) was used as secondary antibody. After washing in PBS, nuclei were stained with DAPI solution for 10 min at RT, protected from light. Cells were imaged using an ImageXpress Pico automated imaging system and CellReporter Xpress software (Molecular Devices). The percentage of cells with nuclear positivity for pCdk1 Y^15 compared to DMSO control was determined for each well and drug dose response curves and EC50 values were calculated and visualized using GraphPad Prism. Target engagement for Wee1A kinase can also be measured using the same AlphaLISA assay in OVCAR3 cells, an ovarian cancer cell line. NIH:OVCAR-3 (OVCAR3) cells are cultured in RPMI-1640 medium supplemented with 0.01 mg/ml insulin, 20% FBS, 1% Penicillin-Streptomycin and 10 mM HEPES buffer. 14,000 cells per well are seeded into 96 well tissue culture plates in full medium. Twenty-four hours post seeding, cells are treated with compound for 4 hours at concentrations ranging from 0.017 nM to 1000 nM.

[2] = biological target: T2, recombinant human Wee1A kinase (Homo sapiens, UniProt P30291); assay: Wee1A kinase binding assay (LanthaScreen Eu time-resolved FRET)
T2 construct: full length Wee1 kinase was expressed by baculovirus in insect cells; purchased Invitrogen PV3817; host or cells: insect cells (baculovirus)
T2 sequence (P30291 whole entry): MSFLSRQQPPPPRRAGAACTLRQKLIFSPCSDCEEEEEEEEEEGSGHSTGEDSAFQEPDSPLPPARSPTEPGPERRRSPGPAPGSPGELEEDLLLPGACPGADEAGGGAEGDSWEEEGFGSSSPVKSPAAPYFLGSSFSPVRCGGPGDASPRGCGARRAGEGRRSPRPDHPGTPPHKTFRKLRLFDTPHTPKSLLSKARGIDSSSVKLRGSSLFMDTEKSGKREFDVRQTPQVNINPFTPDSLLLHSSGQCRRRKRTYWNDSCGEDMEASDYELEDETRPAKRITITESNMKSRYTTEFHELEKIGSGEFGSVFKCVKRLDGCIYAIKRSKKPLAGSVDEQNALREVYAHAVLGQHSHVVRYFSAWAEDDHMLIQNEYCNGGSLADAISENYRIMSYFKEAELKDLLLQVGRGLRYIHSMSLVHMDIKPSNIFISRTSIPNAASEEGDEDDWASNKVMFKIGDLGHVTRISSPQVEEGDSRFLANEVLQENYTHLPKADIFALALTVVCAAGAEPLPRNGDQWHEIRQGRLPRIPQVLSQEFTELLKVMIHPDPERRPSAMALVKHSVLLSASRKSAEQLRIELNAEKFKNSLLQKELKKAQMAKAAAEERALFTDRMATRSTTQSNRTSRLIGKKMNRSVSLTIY
Protocol: This time resolved-FRET binding assay was performed in white 384-well low volume plates (Greiner, cat #784075), at room temperature in kinase buffer A (KBA; Invitrogen cat #PV3189), consisting of 50 mM HEPES-NaOH (pH 7.5), 0.01% Brij-35, 10 mM MgCl2, and 1 mM EGTA. 5 μL of compound (diluted in reaction buffer, to 1% DMSO) were added to various wells in the plate, followed by 5 μL each of recombinant human Wee1A kinase (full length Wee1 kinase was expressed by baculovirus in insect cells using a N-terminal GST tag (MW: 99.1 kDa) (Invitrogen cat #PV3817) and LanthaScreen Eu-anti-GST antibody (Invitrogen, cat #PV5594). After this, 5 μL of kinase tracer 178 (Invitrogen, cat #PV5593) was added to the plate and the plate was incubated for 60 minutes at room temperature. The final assay conditions in each well were: 30 nM tracer 178, 5 nM Wee1A kinase and 2 nM Eu-labeled antibody in total assay volume of 15 μL. An Envision 2104 (Perkin-Elmer) Plate Reader with the following time-resolve fluorescence setting was used for performing LanthaScreen kinase binding assay. • Excitation 320 nm (30 nm bandpass) • Kinase Tracer Emission 665 nm (10 nm bandpass) • LanthaScreen Eu-anti-Tag Antibody Emission 615 nm (10 nm bandpass) • Dichroic Mirror Instrument dependent • Delay Time 100 μs • Integration Time 200 μs
(§1) To calculate the emission ratio, the acceptor/tracer emission ([…]) was divided by the antibody/donor emission ([…]) and the average of duplicate measurement was used for calculations. Data plotting, analysis of binding, and curve fitting was done using Excel add-in XLfit version 5.5.0.5 (IDBS, Guildford, United Kingdom). […] “NT” means not tested.

[3] = biological target: T3, Myt1 kinase (recombinant PMYT-1) (Homo sapiens, UniProt Q99640); assay: Myt1 kinase binding assay (LanthaScreen Eu Kinase Binding Assay)
T3 construct: full length PMYT-1 was expressed by baculovirus in insect cells; purchased Invitrogen A30984; host or cells: insect cells (baculovirus)
T3 sequence (Q99640 1-499): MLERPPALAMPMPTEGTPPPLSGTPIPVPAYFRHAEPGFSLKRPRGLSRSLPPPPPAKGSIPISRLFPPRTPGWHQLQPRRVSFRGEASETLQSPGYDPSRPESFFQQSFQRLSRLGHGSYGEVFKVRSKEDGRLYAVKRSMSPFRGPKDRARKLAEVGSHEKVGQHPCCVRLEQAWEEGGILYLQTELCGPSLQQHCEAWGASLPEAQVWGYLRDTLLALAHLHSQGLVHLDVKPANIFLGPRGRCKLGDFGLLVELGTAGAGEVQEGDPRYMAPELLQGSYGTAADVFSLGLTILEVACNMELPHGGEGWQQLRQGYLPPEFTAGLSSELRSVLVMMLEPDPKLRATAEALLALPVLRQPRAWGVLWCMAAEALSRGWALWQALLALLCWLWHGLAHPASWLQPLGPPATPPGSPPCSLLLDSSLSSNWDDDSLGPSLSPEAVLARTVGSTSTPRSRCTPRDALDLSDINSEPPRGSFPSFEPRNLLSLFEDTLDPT
Protocol: as §1
We used a LanthaScreen Europium (Eu) Kinase Binding Assay to determine the binding affinities (IC50) of compounds to Myt1 kinase. […] “NT” designates that the compound was not tested in this assay.

[4] = 4 h treatment, nuclear positivity for pCdk1 Y15 vs DMSO control, read-out: CDK1 Tyr15 Phosphorylation EC50
[5] = 30 nM tracer 178, 5 nM Wee1A kinase, 2 nM Eu-labeled antibody, 60 minutes at room temperature, read-out: Wee1A kinase Binding IC50
[6] = 3 nM tracer 178, 2.5 nM PMYT-1, 1 nM Eu-labeled antibody, read-out: Myt1 kinase Binding IC50
[7] = read-out: CDK1 Tyr15 Phosphorylation EC50, 4 h treatment, nuclear positivity for pCdk1 Y15 vs DMSO control
[8] = Myt1 kinase Binding IC50, 3 nM tracer 178, 2.5 nM PMYT-1, 1 nM Eu-labeled antibody

T1 sequence (P30291 whole entry): as the sequence (P30291 whole entry) above

Row | EC50 [1, 4] | IC50 [2, 5] | IC50 [3, 6] | EC50 [1, 7] | IC50 [2] | IC50 [3, 8] | Structure (SMILES)
1 | 500 to 1000 nM | < 10 nM | 20 to 100 nM |  |  |  | C=CCn1c(=O)c2cnc(Nc3ccc4[nH]nc(C)c4c3)nc2n1-c1cccc(OC2CCNCC2)n1 [Compound 345, 2-allyl-6-((3-methyl-1H-indazol-5-yl)amino)-1-(6-(piperidin-4-yloxy)pyridin-2-yl)-1,2-dihydro-3H-pyrazolo[3,4-d]pyrimidin-3-one]
2 | < 100 nM | < 10 nM | 20 to 100 nM |  |  |  | C=CCn1c(=O)c2cnc(Nc3ccc4c(cnn4C)c3)nc2n1-c1cccc(OC2CCCNCC2)n1 (single isomer, unassigned) [Compound 357]
3 | < 100 nM | < 10 nM | 20 to 100 nM |  |  |  | C=CCn1c(=O)c2cnc(Nc3cccc(-n4ccnc4)c3)nc2n1-c1cccc(OC2CCN(C)CC2)n1 [Compound 365, 2-allyl-6-[m-(1-imidazolyl)phenylamino]-1-[6-(1-methyl-4-piperidyloxy)-2-pyridyl]-1,2-dihydro-3H-1,2,5,7-tetraazainden-3-one]
4 | 100 to 500 nM | < 10 nM | 20 to 100 nM |  |  |  | CCn1c(=O)c2cnc(Nc3ccc(Br)cc3)nc2n1-c1cccc(OC2CCNCC2)n1 [Compound 267, 6-(p-bromophenylamino)-2-ethyl-1-[6-(4-piperidyloxy)-2-pyridyl]-1,2-dihydro-3H-1,2,5,7-tetraazainden-3-one]
5 | < 100 nM | < 10 nM | 100 to 500 nM |  |  |  | CCn1c(=O)c2cnc(Nc3cccc(-c4cncnc4)c3)nc2n1-c1cccc(OC2CCN(C)CC2)n1 [Compound 367, 2-ethyl-1-[6-(1-methyl-4-piperidyloxy)-2-pyridyl]-6-[m-(5-pyrimidinyl)phenylamino]-1,2-dihydro-3H-1,2,5,7-tetraazainden-3-one]
6 | > 1000 nM | < 10 nM | 20 to 100 nM |  |  |  | CCn1c(=O)c2cnc(Nc3cccc(-c4ccccc4)c3)nc2n1-c1cccc(OC2CCN(C)CC2)n1 [Compound 339, 6-(3-biphenylylamino)-2-ethyl-1-[6-(1-methyl-4-piperidyloxy)-2-pyridyl]-1,2-dihydro-3H-1,2,5,7-tetraazainden-3-one]

The remaining lines, values behind:

Row | Structure (SMILES) | EC50 [1, 4] | IC50 [2, 5] | IC50 [3, 6] | EC50 [1, 7] | IC50 [2] | IC50 [3, 8]
7 | C=CCn1c(=O)c2cnc(Nc3ccc(Cl)cc3)nc2n1-c1cccc(N(C)C2CCNCC2)n1 [Compound 156, 6-[(4-chlorophenyl)amino]-1-{6-[methyl(piperidin-4-yl)amino]pyridin-2-yl}-2-(prop-2-en-1-yl)-1H,2H,3H-pyrazolo[3,4-d]pyrimidin-3-one] |  |  |  | 500 to 1000 nM | < 10 nM | 100 to 500 nM
8 | C=CCn1c(=O)c2cnc(Nc3cnn(CC(C)(C)F)c3)nc2n1-c1cccc(N(C)C2CCN(C)CC2)n1 [Compound 185, 6-{[1-(2-fluoro-2-methylpropyl)-1H-pyrazol-4-yl]amino}-1-{6-[methyl(1-methylpiperidin-4-yl)amino]pyridin-2-yl}-2-(prop-2-en-1-yl)-1H,2H,3H-pyrazolo[3,4-d]pyrimidin-3-one] |  |  |  | 500 to 1000 nM | < 10 nM | > 500 nM
9 | C=CCn1c(=O)c2cnc(Nc3ccc(Cl)c(Cl)c3)nc2n1-c1cccc(NC2CCN(C)CC2)n1 [Compound 151, 2-allyl-6-(3,4-dichlorophenylamino)-1-[6-(1-methyl-4-piperidylamino)-2-pyridyl]-1,2-dihydro-3H-1,2,5,7-tetraazainden-3-one] | 100 to 500 nM | < 10 nM | 100 to 500 nM |  |  | 
10 | C=CCn1c(=O)c2cnc(Nc3cnn(CC(C)(C)F)c3)nc2n1-c1cccc(N(C)C2CCNCC2)n1 [Compound 183, 1-[6-(N-methyl-N-4-piperidylamino)-2-pyridyl]-2-allyl-6-[1-(2-fluoro-2-methylpropyl)-4-pyrazolylamino]-1,2-dihydro-3H-1,2,5,7-tetraazainden-3-one] |  |  |  | > 1000 nM | < 10 nM | > 500 nM
11 | CN1CCC(Oc2cccc(-n3c4nc(Nc5ccc(Cl)cc5)ncc4c(=O)n3C)n2)CC1 [Compound 150, 6-(p-chlorophenylamino)-2-methyl-1-[6-(1-methyl-4-piperidyloxy)-2-pyridyl]-1,2-dihydro-3H-1,2,5,7-tetraazainden-3-one] | 100 to 500 nM | < 10 nM | 20 to 100 nM |  |  | 
12 | C=CCn1c(=O)c2cnc(Nc3cc(C)cc(OC(F)(F)F)c3)nc2n1-c1cccc(NC2CCNCC2)n1 [Compound 155, 6-{[3-methyl-5-(trifluoromethoxy)phenyl]amino}-1-{6-[(piperidin-4-yl)amino]pyridin-2-yl}-2-(prop-2-en-1-yl)-1H,2H,3H-pyrazolo[3,4-d]pyrimidin-3-one] | 500 to 1000 nM | < 10 nM | 100 to 500 nM |  |  | 
13 | C=CCn1c(=O)c2cnc(Nc3ccc4c(cnn4C)c3)nc2n1-c1cccc(O[C@@H]2CCNC2)n1 [Compound 101, 1-{6-[(R)-3-pyrrolidinyloxy]-2-pyridyl}-2-allyl-6-(1-methyl-1H-indazol-5-ylamino)-1,2-dihydro-3H-1,2,5,7-tetraazainden-3-one] | 100 to 500 nM | < 10 nM | 100 to 500 nM |  |  | 
14 | CCCn1c(=O)c2cnc(Nc3ccc4c(cnn4C)c3)nc2n1-c1cccc(OC2CCNCC2)n1 [Compound 110, 6-[(1-methyl-1H-indazol-5-yl)amino]-1-[6-(piperidin-4-yloxy)pyridin-2-yl]-2-propyl-1H,2H,3H-pyrazolo[3,4-d]pyrimidin-3-one] | 100 to 500 nM | < 10 nM | 20 to 100 nM |  |  | 
15 | C=CCn1c(=O)c2cnc(Nc3cnn(CCC(F)(F)F)c3)nc2n1-c1cccc(N(C)C2CCN(C)CC2)n1 [Compound 201, 2-allyl-1-(6-(methyl(1-methylpiperidin-4-yl)amino)pyridin-2-yl)-6-((1-(3,3,3-trifluoropropyl)-1H-pyrazol-4-yl)amino)-1,2-dihydro-3H-pyrazolo[3,4-d]pyrimidin-3-one] |  |  |  | 500 to 1000 nM | < 10 nM | 100 to 500 nM
